# In article PMC5750657, “In Vitro Phase I Metabolism of CRV431, a Novel Oral Drug Candidate for Chronic Hepatitis B” (Pharmaceutics, 2017):
# Legend:
# Assay type in all cases: in vitro ADME
# [1] = Metabolic stability of CRV431 in human liver microsomes
# Method: Incubations of CRV431 (1 and 10 μM) with pooled human liver microsomes (1 mg protein/mL) were conducted for 30 min. […] CRV431 was added to incubations in DMSO (0.1% v/v). Additional incubations of CRV431 (1 and 10 μM) with human liver microsomes (1 mg protein/mL) were carried out at 0, 15, 30, 60, and 120 min. Reactions were initiated by the addition of the NADPH-generating system, and were stopped by the addition of 175 μL of acetonitrile. The samples were centrifuged (920× g for 10 min at 10 °C), and the supernatant fractions were analyzed by LC-MS/MS (Sciex, Redwood City, CA, USA) to quantify the amount of unchanged CRV431 based on a calibration curve (ranging from 0.01 to 15 μM). Zero-time, zero-cofactor (no NADPH), zero-substrate, and zero-protein served as blanks.
# (§1) The electrospray voltage was set at 4500 volts.
# [2] = target: T1, recombinant human CYP1A2 (Homo sapiens, UniProt P05177); experiment: Metabolism by recombinant human CYP enzymes: CYP1A2; settings: CRV431 1 μM; 50 pmol CYP/mL; 15 min
# T1 construct: purchased Sekisui Xenotech, Kansas City, MO, USA
# T1 sequence (P05177 1-516): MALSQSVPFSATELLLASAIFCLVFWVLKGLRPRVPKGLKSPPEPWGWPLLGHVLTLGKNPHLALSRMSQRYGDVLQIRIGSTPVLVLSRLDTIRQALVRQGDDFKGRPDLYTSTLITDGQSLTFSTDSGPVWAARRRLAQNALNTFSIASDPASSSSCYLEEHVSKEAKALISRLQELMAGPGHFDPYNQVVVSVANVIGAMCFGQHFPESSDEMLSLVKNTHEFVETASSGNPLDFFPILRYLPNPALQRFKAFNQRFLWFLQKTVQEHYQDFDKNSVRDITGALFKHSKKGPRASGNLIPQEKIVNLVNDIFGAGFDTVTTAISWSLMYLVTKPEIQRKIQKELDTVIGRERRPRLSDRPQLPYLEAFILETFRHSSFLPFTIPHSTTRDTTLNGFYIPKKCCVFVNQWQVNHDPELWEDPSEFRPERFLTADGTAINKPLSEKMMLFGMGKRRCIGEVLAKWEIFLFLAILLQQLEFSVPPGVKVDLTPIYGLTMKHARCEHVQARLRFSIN
# Method: (§2) This experiment was carried out to determine the cytochrome P450 (CYP) enzymes capable of metabolizing CRV431. […] Reactions were initiated by the addition of cofactor, and were terminated at zero and 15 min by the addition of 175 μL ice-cold methanol.
# as §1
# [3] = target: T2, recombinant human CYP2C19 (Homo sapiens, UniProt P33261); experiment: Metabolism by recombinant human CYP enzymes: CYP2C19; settings: CRV431 1 μM; 50 pmol CYP/mL; 15 min
# T2 construct: purchased Sekisui Xenotech, Kansas City, MO, USA
# T2 sequence (P33261 whole entry): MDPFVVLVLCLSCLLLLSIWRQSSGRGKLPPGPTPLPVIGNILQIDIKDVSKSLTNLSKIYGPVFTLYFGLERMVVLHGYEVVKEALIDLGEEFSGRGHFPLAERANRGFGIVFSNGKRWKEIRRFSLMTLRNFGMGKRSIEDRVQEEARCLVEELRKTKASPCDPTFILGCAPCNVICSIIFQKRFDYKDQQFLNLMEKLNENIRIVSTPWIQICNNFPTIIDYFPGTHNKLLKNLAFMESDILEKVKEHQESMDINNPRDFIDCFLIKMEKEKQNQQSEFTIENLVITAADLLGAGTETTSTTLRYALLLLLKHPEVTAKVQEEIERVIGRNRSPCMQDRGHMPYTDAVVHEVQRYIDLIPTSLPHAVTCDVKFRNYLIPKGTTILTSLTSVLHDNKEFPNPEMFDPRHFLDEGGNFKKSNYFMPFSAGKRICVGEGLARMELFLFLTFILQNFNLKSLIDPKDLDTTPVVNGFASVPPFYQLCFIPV
# Method: as §2, §1
# [4] = target: T3, recombinant human CYP2D6 (Homo sapiens, UniProt P10635); experiment: Metabolism by recombinant human CYP enzymes: CYP2D6; settings: CRV431 1 μM; 50 pmol CYP/mL; 15 min
# T3 construct: purchased Sekisui Xenotech, Kansas City, MO, USA
# T3 sequence (P10635 whole entry): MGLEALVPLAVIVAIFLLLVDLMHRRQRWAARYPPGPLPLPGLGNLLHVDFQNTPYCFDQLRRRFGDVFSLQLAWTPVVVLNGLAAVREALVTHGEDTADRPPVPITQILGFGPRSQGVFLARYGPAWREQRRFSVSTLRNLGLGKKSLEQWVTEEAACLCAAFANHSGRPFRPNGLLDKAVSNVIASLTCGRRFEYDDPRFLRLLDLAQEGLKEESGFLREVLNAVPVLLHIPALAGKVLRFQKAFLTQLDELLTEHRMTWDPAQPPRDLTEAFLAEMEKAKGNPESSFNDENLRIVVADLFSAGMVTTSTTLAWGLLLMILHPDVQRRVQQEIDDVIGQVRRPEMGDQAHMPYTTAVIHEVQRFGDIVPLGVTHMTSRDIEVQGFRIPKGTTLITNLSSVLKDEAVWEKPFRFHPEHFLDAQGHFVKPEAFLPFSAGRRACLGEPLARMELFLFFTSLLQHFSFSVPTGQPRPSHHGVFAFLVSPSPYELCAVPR
# Method: as §2, §1
# [5] = target: T4, recombinant human CYP3A4 (Homo sapiens, UniProt P08684); experiment: Metabolism by recombinant human CYP enzymes: CYP3A4; settings: 50 pmol CYP/mL, 15 min
# T4 construct: purchased Sekisui Xenotech, Kansas City, MO, USA
# T4 sequence (P08684 whole entry): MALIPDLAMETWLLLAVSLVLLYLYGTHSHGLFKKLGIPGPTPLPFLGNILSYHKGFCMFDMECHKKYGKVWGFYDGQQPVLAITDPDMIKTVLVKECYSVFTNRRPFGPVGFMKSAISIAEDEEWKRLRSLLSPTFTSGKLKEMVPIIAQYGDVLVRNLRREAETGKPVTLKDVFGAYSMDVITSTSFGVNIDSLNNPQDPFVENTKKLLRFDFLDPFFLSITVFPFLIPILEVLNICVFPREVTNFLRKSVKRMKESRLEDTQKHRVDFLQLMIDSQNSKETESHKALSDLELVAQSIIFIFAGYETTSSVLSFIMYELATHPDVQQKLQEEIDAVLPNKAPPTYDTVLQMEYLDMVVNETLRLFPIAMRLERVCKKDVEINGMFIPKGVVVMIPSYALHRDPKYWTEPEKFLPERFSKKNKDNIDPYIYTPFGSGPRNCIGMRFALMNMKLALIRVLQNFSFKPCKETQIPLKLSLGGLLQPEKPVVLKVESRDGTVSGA
# Method: as §2, §1
# [6] = Recombinant CYP panel: incubation with control bactosomes; settings: CRV431 1 μM, 15 min
# Method: as §2, §1
# [7] = system: other recombinant human CYP enzymes; experiment: Metabolism by the other recombinant human CYP enzymes evaluated; settings: CRV431 1 and 10 μM; the CYP enzymes of the panel not given; 15 min
# Method: as §2, §1
# [8] = CRV431 metabolite profile in human liver microsomes (ESI-LCMS); settings: pH 7.4; for Amount of CRV431 remaining: microsomes, 1 μg/mL
# Method: (§3) Human and rat liver microsomes were obtained from Xenotech (Kansas City, MO, USA) and stored at −80 °C. Monkey liver microsomes were obtained from Thermo Fisher Scientific (Waltham, MA, USA) and stored at −80 °C. Preliminary microsomal biotransformation experiments were run with 0.1, 1, and 10 μg/mL CRV431. CRV431 biotransformation was minimal at 0.1 μg/mL, while both 1 and 10 μg/mL CRV431 gave sufficient metabolite quantity and identical metabolite profiles. Additionally, preliminary experiments were conducted with human liver microsome (HLM) levels ranging for 0.125 to 1 mg. Subsequent microsomal biotransformation experiments were conducted using 0.5 mg of microsome per assay.
# (§4) Thawed microsome 20 mg/mL stocks were diluted 32× into cold buffer (Phosphate pH 7.4 + MgCl2 3 mM + EDTA 1 mM) to 0.625 mg/mL, and stored on ice. For experiments with CRV431, 2 μL of […] stocks were added to cold 1-mL microsomes (500× dilution) to generate the 1 μg/mL samples. […]. Samples were mixed by vortexing, and 160 μL was transferred into tubes containing 40 μL buffer on ice. Metabolic activity was stopped by the addition of ice-cold methanol (200 μL), followed by vortexing for an additional 10 s; these were zero-time samples. The extraction was completed by waiting 5 min, vortexing samples again for 5 s, then spinning the samples for 10 min at 3300 rpm at 4 °C in a pre-cooled microcentrifuge. The supernatant (325 μL) was transferred to new tubes and stored at −80 °C.
# (§5) For time course experiments, metabolism was initiated by adding 40 μL of NADPH Regenerating System (5 mg/mL NADP, 6.5 mg/mL G6P and 5 units/mL of G6P dehydrogenase). The sample was vortexed for 2 s and placed in a 37 °C bath. For CRV431 experiments at time points 10 min, 20 min, 40 min, and 80 min, 200 μL of ice-cold methanol was added to the 200 μL microsome reactions, and extracted as described above. Samples were stored at −80 °C. For verapamil experiments at 15 min, 200 μL of ice-cold methanol was added to the 200 μL microsome reactions and extracted as described above. Samples were stored at −80 °C.
# (§6) Microsome extracts were removed from the freezer (−80 °C) and left to thaw at room temperature. Aliquots (50 μL) were removed and placed in 2 mL plastic Eppendorf microcentrifuge tubes, to which 200 μL of a 0.2 M ZnSO4 solution (0.2 M ZnSO4 in water, plus HPLC grade methanol, 1:4, v/v) was added as protein precipitating reagent. The tubes were capped and vortexed for 10 s, and then left on the benchtop for 10 min. Samples were then centrifuged at 3300 rpm for 10 min. The clear supernatant (≈150 μL) was transferred to an appropriately labeled LC-MS autosampler vial and capped.
# (§7) Samples were analyzed by electrospray ionization liquid chromatography mass spectrometry (ESI-LCMS) on an Agilent HP 1100 LC-MS. Samples were placed in an autosampler maintained at 5 °C. CRV431 microsomal extracts (20 μL) were injected onto a Zorbax SB-C18 reverse phase HPLC column (1.8 μm Rapid Resolution HT Cartridge, 4.6 × 30 mm (Agilent, Santa Clara, CA, USA) maintained at 75 °C, and the components were separated using an acetonitrile–water gradient system (Table 2). The sodium adducts of CRV431 (1326 m/z) and metabolites were analyzed by mass spectrometry (MS) using electrospray ionization (ESI) in positive ion mode. The ESI–MS was optimized with N2 gas temperature set at 350 °C and drying gas at […]. The fragmentor and capillary voltages were set at 260 and 4000 volts, respectively. The nebulizer pressure was set at 40 psig. For the initial analysis of the microsomal extracts, the ESI–MS was run in scan mode (1260–1460 m/z) to capture all ion signals present. Subsequently, the microsomal extracts were run in selected ion mode (SIM), with the ions identified in the scans.
# [9] = CRV431 metabolite profile in monkey liver microsomes (ESI-LCMS)
# Method: as §3, §4, §5, §6, §7
# [10] = CRV431 metabolite profile in rat liver microsomes (ESI-LCMS); settings: Sprague-Dawley, pH 7.4
# Method: as §3, §4, §5, §6, §7
# [11] = target: T5, CYP2C9 (Homo sapiens, UniProt P11712); experiment: Metabolism by recombinant human CYP enzymes: CYP2C9; parameters: purchased Sekisui Xenotech, Kansas City, MO, USA; settings: 50 pmol CYP/mL, 15 min
# T5 sequence (P11712 whole entry): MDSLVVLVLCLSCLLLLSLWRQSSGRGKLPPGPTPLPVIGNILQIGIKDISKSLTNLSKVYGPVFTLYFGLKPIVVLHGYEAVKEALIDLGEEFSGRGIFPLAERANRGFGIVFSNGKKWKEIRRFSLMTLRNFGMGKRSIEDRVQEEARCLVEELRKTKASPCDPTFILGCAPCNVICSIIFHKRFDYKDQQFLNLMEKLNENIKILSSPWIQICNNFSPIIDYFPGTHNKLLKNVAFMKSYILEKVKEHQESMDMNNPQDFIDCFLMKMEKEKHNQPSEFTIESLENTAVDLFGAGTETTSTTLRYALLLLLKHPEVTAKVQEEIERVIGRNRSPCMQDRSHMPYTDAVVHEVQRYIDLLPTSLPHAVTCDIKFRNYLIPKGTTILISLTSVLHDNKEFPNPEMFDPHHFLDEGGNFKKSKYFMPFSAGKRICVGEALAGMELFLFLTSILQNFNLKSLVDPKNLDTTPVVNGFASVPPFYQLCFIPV
# Method: as §2, §1
# [12] = system: CYP2C19; experiment: Chemical inhibition of CRV431 loss in human liver microsomes: CYP2C19; settings: pH 7.4, probe CRV431 (1 μM; loss of parent), metabolism-dependent inhibitor (also inhibits CYP3A4/5), 30 min pre-incubation
# Method: (§8) This experiment was carried out manually to verify the role of individual CYP enzymes in the metabolism of CRV431. […] Incubations were conducted at 37 ± 1 °C in 0.2 mL incubation mixtures (final volume) containing potassium phosphate buffer (50 mM, pH 7.4), MgCl2 (3 mM) and EDTA (1 mM, pH 7.4), with an NADPH-generating system as cofactor. The NADPH-generating system consisted of NADP (1 mM, pH 7.4), glucose-6-phosphate (5 mM, pH 7.4), and glucose-6-phosphate dehydrogenase (1 Unit/mL). CRV431 was added to the incubation mixtures in DMSO (0.1% v/v). For incubations with direct-acting chemical inhibitors, reactions were initiated by the addition of cofactor, and stopped by the addition of an equal volume of acetonitrile stop reagent. For incubations with metabolism-dependent chemical inhibitors, 30 min pre-incubations of human liver microsomes and the inhibitor were initiated by the addition of the cofactor. CRV431 was then added to the mixture to be incubated for 15 min. Reactions were stopped by the addition of an equal volume of acetonitrile stop reagent. Samples were analyzed by LC-MS/MS to quantify the amount of unchanged CRV431. Control samples with no CYP inhibitor present were conducted in the presence of the solvent used to dissolve the CYP inhibitor (“solvent control”).
# (§9) Samples were analyzed by LC-MS/MS on a SCIEX 4000 QTrap mass spectrometer (Sciex, Rewood City, CA, USA). […]
# [13] = target: T5, CYP2C9; experiment: Chemical inhibition of CRV431 loss in human liver microsomes: CYP2C9; parameters: tissue Sekisui Xenotech, Kansas City, MO, USA; host or cells: human liver microsomes; settings: pH 7.4, probe CRV431 (1 μM; loss of parent), metabolism-dependent inhibitor, 30 min pre-incubation
# Method: as §8, §9
compound,measurement,setting,value
CCC1NC(=O)C([C@H](O)[C@H](C)CCCCCCNC(C)=O)N(C)C(=O)C(C(C)C)N(C)C(=O)[C@H](CC(C)C)N(C)C(=O)[C@H](CC(C)C)N(C)C(=O)C(C)NC(=O)[C@H](C)NC(=O)C(CC(C)C)N(C)C(=O)[C@H](C(C)C)NC(=O)[C@H](CC(C)C)N(C)C(=O)C(C)N(C)C1=O (stereo in doubt) [CRV431],Biotransformation of CRV431,"[1]; 1 and 10 μM, 1 mg protein/mL, after 60 min incubation, with NADPH-generating system",nearly complete
same,Biotransformation of CRV431,"[1]; absence of microsomal proteins and the NADPH-generating system, same time period",no biotransformation
same,Disappearance of CRV431,[2],19%
same,Disappearance of CRV431,[3],17%
same,Disappearance of CRV431,[4],32%
same,Disappearance of CRV431,[5]; CRV431 1 μM,64%
same,Loss of CRV431,[5]; CRV431 10 μM,41%
same,Loss of CRV431,[6],24%
same,Substrate loss,[7],less than 15%
same,% of Total Drug-Related Mass Versus Time (minutes) 0 min,"[8]; 0 min, 1 ug/mL",96.4%
same,% of Total Drug-Related Mass Versus Time (minutes) 10 min,"[8]; 10 min, 1 ug/mL",57.0%
same,% of Total Drug-Related Mass Versus Time (minutes) 20 min,"[8]; 20 min, 1 ug/mL",27.5%
same,% of Total Drug-Related Mass Versus Time (minutes) 40 min,"[8]; 40 min, 1 ug/mL",10.4%
same,% of Total Drug-Related Mass Versus Time (minutes) 80 min,"[8]; 80 min, 1 ug/mL",4.0%
same,Amount of CRV431 remaining,[8]; 10 min,71.8%
same,Amount of CRV431 remaining,[8]; 80 min,5.3%
same,"Rate of CRV431 metabolism in monkey liver microsomes, greater than in human microsomes",[9]; monkey relative to human liver microsomes,at least five-fold
same,% of Total Drug-Related Mass Versus Time (minutes) 0 min,"[9]; monkey, 0 min, 1 ug/mL, pH 7.4",96.3%
same,% of Total Drug-Related Mass Versus Time (minutes) 2.5 min,"[9]; monkey, 2.5 min, 1 ug/mL, pH 7.4",59.4%
same,% of Total Drug-Related Mass Versus Time (minutes) 5 min,"[9]; monkey, 5 min, 1 ug/mL, pH 7.4",21.5%
same,% of Total Drug-Related Mass Versus Time (minutes) 10 min,"[9]; monkey, 10 min, 1 ug/mL, pH 7.4",12.3%
same,% of Total Drug-Related Mass Versus Time (minutes) 20 min,"[9]; monkey, 20 min, 1 ug/mL, pH 7.4",4.3%
same,% of Total Drug-Related Mass Versus Time (minutes) 40 min,"[9]; monkey, 40 min, 1 ug/mL, pH 7.4",6.6%
same,% of Total Drug-Related Mass Versus Time (minutes) 80 min,"[9]; monkey, 80 min, 1 ug/mL, pH 7.4",6.7%
same,Amount of CRV431 remaining,"[9]; monkey, microsomes, 10 min, 1 μg/mL, pH 7.4",13.2%
same,% of Total Drug-Related Mass Versus Time (minutes) 0 min,"[10]; 0 min, 1 ug/mL",96.2%
same,% of Total Drug-Related Mass Versus Time (minutes) 10 min,"[10]; 10 min, 1 ug/mL",95.4%
same,% of Total Drug-Related Mass Versus Time (minutes) 20 min,"[10]; 20 min, 1 ug/mL",94.6%
same,% of Total Drug-Related Mass Versus Time (minutes) 40 min,"[10]; 40 min, 1 ug/mL",93.6%
same,% of Total Drug-Related Mass Versus Time (minutes) 80 min,"[10]; 80 min, 1 ug/mL",92.3%
same,Amount of CRV431 remaining,"[10]; microsomes, 80 min, 1 μg/mL",92.3%
same,Disappearance of CRV431,[11]; CRV431 1 μM,27%
same,Loss of CRV431,[11]; CRV431 10 μM,27%
COc1ccc2nc([S@@+]([O-])Cc3ncc(C)c(OC)c3C)[nH]c2c1 [esomeprazole],inhibition at 15 min,[12],37%
O=C(O)COc1ccc(C(=O)c2cccs2)c(Cl)c1Cl [tienilic acid],inhibition at 15 min,[13],7%
